Measurements published in patent US12383533B2 (Frost Biologic, Inc., priority 2014, dated 2025).

What was measured:
[1] = tested on: MCF-7 cells; experiment: Cell Viability Assay (ATPlite 1step), MCF-7; format: cell-based; settings: Homo sapiens, MCF7, 72 hours; for percent inhibition of cell viability at 4 µM: MCF-7, 4 uM compound, read-out: Cell Viability % inhibition MCF-7 (4 uM Cpd); for percent inhibition of cell viability at 20 µM: MCF-7, 20 uM compound, read-out: Cell Viability % inhibition MCF-7 (20 uM Cpd)
Description: Cell Viability Assay Protocol
Cells were trypsinized, counted, and re-seeded into a 384-well tissue culture plate at 1000 cells per well in […] media. Cells were incubated at 37° C. in an atmosphere of 5% CO2 for 24 hours. Experimental compounds, initially dissolved in DMSO and diluted further in media were added to the wells and incubated for 72 hours. Cell viability was measured using the ATPlite 1step Luminescence Detection Assay system (Perkin Elmer) as described in the Assay kit instructions.
Cell Culture Lines and Media: (1) A2780 cells were cultured in RPMI media with 10% FBS and 1% antibiotics. Cells were typically split every 3-5 days at a 1:10 dilution; (2) PC3 cells were cultured in RPMI media with 10% FBS and 1% antibiotics. Cells were typically split every 3-5 days at a 1:4 dilution; (3) MCF-7 cells were grown in K-12F media with 10% FBS and 1% antibiotics. Cells were typically split every 3-5 days at a 1:10 dilution.

[2] = tested on: porcine neuronal tubulin; experiment: Tubulin Polymerization Assay; format: biochemical; settings: porcine tubulin 2.0 mg/ml, 37° C., fluorescence; read-out: IC50 (tubulin polymerization, from Vmax)
Text: Tubulin Polymerization Assay
The Tubulin Polymerization Assay uses porcine neuronal tubulin and measurements are based on fluorescence enhancement due to the incorporation of a fluorescent reporter into microtubules as polymerization occurs. The assay generates a polymerization curve representing the three phases of microtubule formation (nucleation, growth and equilibrium). IC50 values for tested compounds can be generated from the observed polymerization curves.
Procedure: All compounds dilutions (in DMSO) were prepared prior to the following steps. A Molecular Devices M2 plate reader was set to 37° C. Once the internal temperature of the plate reader reached 37° C. a 96 well plate (Corning Costar, at. #3686) was placed in the fluorimeter and allowed to warm to 37° C. for 30 minutes. A total of 10 mg of porcine tubulin was resuspended in […] of Polymerization Buffer [Buffer 1 (80 mM PIPES pH 6.9, 2.0 mM MgCl2, 0.5 mM EGTA, 1.0 mM GTP and 10 μM fluorescent reporter) supplemented with 20% glycerol] to generate a 2.0 mg/ml tubulin stock and this was kept on ice. The 50× compound stocks in 100% DMSO were spotted 1 μl/well in duplicate into the wells of the 96-well plate at 37° C. and allowed to re-warm for 5 minutes at 37° C. During this incubation the 2.0 mg/ml tubulin stock was placed in a disposable plastic trough and allowed to warm briefly at room temperature. To initiate the reaction, 50 μl/well of 2.0 mg/ml tubulin in Polymerization Buffer was added to each well using a multi-channel pipettor and the fluorescence measurements were started immediately.
The maximal velocity (Vmax) of tubulin polymerization was determined using linear regression of the averaged fluorescence data at each time point using GraphPad Prism 5.0 software. The Vmax determinations for each compound at each concentration were then normalized to reactions that contained DMSO (2% final concentration) but no test compounds. This converted the data to % Activity, which refers to the percent of the Vmax of an uninhibited reaction. The concentration response curves were then plotted as the % Activity versus the Log 10 of the compound concentration in micromolar and fit by non-linear regression to a 4-parameter sigmoidal dose-response equation using GraphPad Prism 5.0 software to determine the IC50 for each compound.

[3] = tested on: PC3 cells; experiment: Cell Viability Assay (ATPlite 1step), PC3; format: cell-based; settings: Homo sapiens, PC-3, 72 hours; for percent inhibition of cell viability at 4 µM: PC3, 4 uM compound, read-out: Cell Viability % inhibition PC3 (4 uM Cpd); for percent inhibition of cell viability at 20 µM: PC3, 20 uM compound, read-out: Cell Viability % inhibition PC3 (20 uM Cpd)
Method in brief: (§1)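 Cells seeded at 1000/well, grown 24 h at 37 °C/5% CO2, then exposed to compounds (DMSO stock diluted in media) for 72 h; viability read by ATPlite 1step luminescence. A2780 and PC3 in RPMI, MCF-7 in K-12F, each with 10% FBS.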

[4] = tested on: A2780 cells; experiment: Cell Viability Assay (ATPlite 1step), A2780; format: cell-based; settings: Homo sapiens, 72 hours; for percent inhibition of cell viability at 4 µM: A2780, 4 uM compound, read-out: Cell Viability % inhibition A2780 (4 uM Cpd); for percent inhibition of cell viability at 20 µM: A2780, 20 uM compound, read-out: Cell Viability % inhibition A2780 (20 uM Cpd)
Method in brief: as §1

Row | SMILES | IC50 [2] [nM] | percent inhibition of cell viability at 4 µM [1] [%] | percent inhibition of cell viability at 20 µM [1] [%] | percent inhibition of cell viability at 4 µM [3] [%] | percent inhibition of cell viability at 20 µM [3] [%] | percent inhibition of cell viability at 4 µM [4] [%] | percent inhibition of cell viability at 20 µM [4] [%]
1 | Cc1ncc(C(=O)Nc2ccc(-c3cccc(S(=O)(=O)C4CC4)c3)cn2)cn1 [Compound 63, N-{5-[3-(cyclopropylsulfonyl)phenyl]pyridin-2-yl}-2-methylpyrimidine-5-carboxamide] | 240 | 59.1 | 65.1 | 61.4 | 67.6 | 85.6 | 88
2 | Cc1ncc(C(=O)Nc2ccc(-c3ccsc3)cn2)cn1 [Compound 61, 2-methyl-N-[5-(thiophen-3-yl)pyridin-2-yl]pyrimidine-5-carboxamide] | 260 | 73.3 | 72.9 | 58.3 | 70.6 | 86.5 | 89.7
3 | O=C(Nc1ccc(-c2cccc(C3CC3)c2)cn1)c1cncnc1 [Compound 16, N-[5-(3-cyclopropylphenyl)pyridin-2-yl]pyrimidine-5-carboxamide] | 480 | 70.2 | 78.4 | 73.7 | 77.7 | 90.4 | 92.1
4 | O=C(Nc1ccc(-c2cccc(Cl)c2)cn1)c1cncnc1 [Compound 3, N-[5-(3-chlorophenyl)pyridin-2-yl]pyrimidine-5-carboxamide] | 1450 | 50.6 | 56.8 | 60.9 | 68.3 | 84.8 | 90.2
5 | O=C(Nc1ccc(-c2ccccc2)cn1)c1cncnc1 [Compound 1] | 1400 | 46.1 | 68.4 | 59.1 | 72.2 | 84.2 | 93.6
6 | Cc1ncc(C(=O)Nc2ccc(-c3cccc(OC4CC4)c3)cn2)cn1 [Compound 27, N-{5-[3-(cyclopropyloxy)phenyl]pyridin-2-yl}-2-methylpyrimidine-5-carboxamide] | 680 | – | – | 58.3 | 69.6 | 77.3 | 77.4

Now from value to compound, other results behind:

Row | IC50 [2] [nM] | SMILES | percent inhibition of cell viability at 4 µM [1] [%] | percent inhibition of cell viability at 20 µM [1] [%] | percent inhibition of cell viability at 4 µM [3] [%] | percent inhibition of cell viability at 20 µM [3] [%] | percent inhibition of cell viability at 4 µM [4] [%] | percent inhibition of cell viability at 20 µM [4] [%]
7 | 2350 | Cc1ncc(C(=O)Nc2ncc(-c3ccsc3)cc2F)cn1 [Compound 69, N-[3-fluoro-5-(thiophen-3-yl)pyridin-2-yl]-2-methylpyrimidine-5-carboxamide] | 56.2 | 61.3 | 57.6 | 64.5 | 84.7 | 90.1
8 | 120 | Cc1ncc(C(=O)Nc2ccc(-c3cccc(S(=O)(=O)C4CC4)c3)c(C)n2)cn1 [Compound 64, N-{5-[3-(cyclopropylsulfonyl)phenyl]-6-methylpyridin-2-yl}-2-methylpyrimidine-5-carboxamide] | 73.5 | 74.5 | 59.4 | 62.7 | 80 | 81.5
9 | 2420 | Cc1ncc(C(=O)Nc2ncc(-c3cccc(C4CC4)c3)cc2F)cn1 [Compound 67, N-[5-(3-cyclopropylphenyl)-3-fluoropyridin-2-yl]-2-methylpyrimidine-5-carboxamide] | 60 | 63.7 | 56 | 61.6 | 87.1 | 87.9
10 | 3840 | Cc1ncc(C(=O)Nc2ncc(-c3cccc(OC4CC4)c3)cc2F)cn1 [Compound 66, N-{5-[3-(cyclopropyloxy)phenyl]-3-fluoropyridin-2-yl}-2-methylpyrimidine-5-carboxamide] | 75 | 76 | 66 | 70.6 | 89 | 88.4
11 | 10 | Cc1ncc(C(=O)Nc2ncc(-c3cccc(S(=O)(=O)C4CC4)c3)cc2F)cn1 [Compound 70, N-{5-[3-(cyclopropylsulfonyl)phenyl]-3-fluoropyridin-2-yl}-2-methylpyrimidine-5-carboxamide] | 61.1 | 66.1 | 58.4 | 65 | 86.3 | 87.8
